Experimental data published in patent publication US8476455B2, “1-N-phenyl-amino-1h-imidazole derivatives and pharmaceutical compositions containing them” (Laboratoire Theramex, priority 2003, dated 2013).

Columns and labels:
human estrone sulfatase = target: T1, human estrone sulfatase (Homo sapiens, UniProt P08842); assay: Steroid (estrone) sulfatase activity alone in JEG-3 cells; assay type: cell-based; details: footnote b: sulfatase activity alone, nd: not detected, read-out: Sulfatase activity IC50 (nM) ± S.E.M.
T1 construct: The JEG-3 cell line is intrinsically very rich in human estrone sulfatase; endogenous in cells; host or cells: JEG-3 (human placental choriocarcinoma)
T1 sequence (P08842 22-583): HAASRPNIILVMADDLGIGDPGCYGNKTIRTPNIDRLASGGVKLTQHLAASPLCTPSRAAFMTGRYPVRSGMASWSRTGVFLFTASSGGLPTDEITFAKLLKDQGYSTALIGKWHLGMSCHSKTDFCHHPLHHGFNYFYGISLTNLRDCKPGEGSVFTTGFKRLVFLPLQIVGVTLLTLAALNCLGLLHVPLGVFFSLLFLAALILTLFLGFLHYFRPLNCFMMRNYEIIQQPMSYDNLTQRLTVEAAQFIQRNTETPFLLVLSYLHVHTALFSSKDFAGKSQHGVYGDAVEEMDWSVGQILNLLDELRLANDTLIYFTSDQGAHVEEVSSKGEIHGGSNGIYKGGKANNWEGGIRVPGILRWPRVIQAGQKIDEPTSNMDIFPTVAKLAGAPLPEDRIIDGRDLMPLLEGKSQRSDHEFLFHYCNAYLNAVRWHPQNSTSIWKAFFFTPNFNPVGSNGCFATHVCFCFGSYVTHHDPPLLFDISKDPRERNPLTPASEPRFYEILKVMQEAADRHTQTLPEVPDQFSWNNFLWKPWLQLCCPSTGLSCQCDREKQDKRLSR
Method: (§1) The JEG-3 cell line is intrinsically very rich in human estrone sulfatase and therefore is a useful biological system to evaluate new steroid sulfatase inhibitors in vitro. Assays were carried out with cells in logarithmic growth phase on 96-well microplates. 24 h before studies, cells were seeded in decomplemented fetal calf serum (dFCS) supplemented medium. The medium was removed 24 h later and cells were rinsed with PBS to eliminate any trace of dFCS. Then, ^3H-E1S was added in dFCS free medium, followed by test compounds at concentrations ranging from 10^−12 M to 10^−5 M. After 4 h of treatment, the medium was transferred into 96-deep-well microplates and centrifuged at 200×g for 10 min to pellet cells before toluene extraction. A fraction of the medium was used for toluene extraction in order to separate the conjugated substrate from non-conjugated products. The radioactivity in the toluene phase was measured by liquid scintillation counting. In parallel, after cell solubilization in a ethylenediamine tetraacetate solution, DNA content was measured by a standard fluorimetric method using the Hoechst 33258 fluorochrome. Finally, estrone sulfatase activity was expressed in pmoles of ^3H-E1+^3H-E2 formed/4 hours/mg DNA and estrone sulfatase inhibition as a percentage of control activity without inhibitor.

Ishikawa cells = assay: Alkaline phosphatase activity in Ishikawa cells (estrogenic potency); assay type: cell-based
Method: Ishikawa cells were plated into 96-well microplates 48 hours before studies. The next day, the medium was replaced by phenol red free medium supplemented with 5% charcoal-stripped dFCS. 24 hours later, the medium was renewed and compounds were added to the plated cells and incubated for an additional four-day period. […] At the end of the incubation period, alkaline phosphatase activity (APase) was assayed by a method involving the hydrolysis of p-nitrophenyl phosphate to p-nitrophenol and spectrophotometric determination of the product at 405 nm.
In brief, the microplates were first rinsed twice with cold phosphate buffered solution and then placed at −80° C. for at least 15 minutes. After thawing at room temperature, 50 μl ice-cold solution containing 5 mM p-nitrophenyl phosphate was added to each well. After a 15 to 60 minute incubation period at room temperature, the intensity of the yellow color generated by the production of p-nitrophenol was measured into each well at 405 nm.
For each tested concentration, APase activity, reflected by absorbance, was first expressed as fold increase over control (FI) and then as percentage of E2 activity (10^-8 M) chosen equal to 100%.

human aromatase [1] = target: T2, human aromatase (Homo sapiens, UniProt P11511); assay: Aromatase activity alone, tritiated water method in JEG-3 cells; assay type: cell-based; details: footnote a: aromatase activity alone, nd: not detected, read-out: Aromatase activity IC50 (nM) ± S.E.M.
T2 construct: The JEG-3 cell line, derived from a human placental choriocarcinoma, constitutively overexpresses human aromatase; endogenous in cells; host or cells: JEG-3 (human placental choriocarcinoma)
T2 sequence (P11511 1-503): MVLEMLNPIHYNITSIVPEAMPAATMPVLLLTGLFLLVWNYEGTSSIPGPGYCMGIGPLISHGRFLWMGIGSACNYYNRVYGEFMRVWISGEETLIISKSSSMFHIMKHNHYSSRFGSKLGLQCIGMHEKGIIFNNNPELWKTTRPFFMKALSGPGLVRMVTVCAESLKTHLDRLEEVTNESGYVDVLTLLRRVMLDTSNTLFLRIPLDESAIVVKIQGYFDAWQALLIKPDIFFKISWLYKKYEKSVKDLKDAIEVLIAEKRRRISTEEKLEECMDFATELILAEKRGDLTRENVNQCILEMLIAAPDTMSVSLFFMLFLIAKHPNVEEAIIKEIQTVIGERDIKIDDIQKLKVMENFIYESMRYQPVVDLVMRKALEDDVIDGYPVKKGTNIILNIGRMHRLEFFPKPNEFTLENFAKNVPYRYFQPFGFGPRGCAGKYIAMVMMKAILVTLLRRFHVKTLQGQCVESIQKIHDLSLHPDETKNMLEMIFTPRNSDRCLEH
Method: The JEG-3 cell line, derived from a human placental choriocarcinoma, constitutively overexpresses human aromatase and represents a relevant model for assaying putative aromatase inhibitors in vitro. Aromatase activity was determined by the tritiated water method. In brief, cells were first seeded into 96-well microplates in decomplemented fetal calf serum (dFCS) supplemented medium. 24 hours later, cells were rinsed and fresh medium containing 1β-^3H-androstenedione as aromatase substrate was added together with test compounds at concentrations ranging from 10^−12 M to 10^−5 M. After 2 hours of incubation, a fraction of the medium was transferred to homologous new 96-well microplates and a dextran-coated charcoal solution was added to each well. Following standing on ice for 10 minutes, microplates were centrifuged (1500 g; 4° C.). All steroids, including the radioactive substrate and the newly biosynthesized estrogens, were adsorbed on charcoal; only ^3H-water specifically formed during aromatisation of 1β-^3H-androstenedione, remained in the supernatant. The radioactivity in the supernatant was measured by liquid scintillation counting. In parallel, cell solubilization was performed in ethylenediamine tetraacetate solution. […] Finally, aromatase activity was expressed in fmoles of ^3H-water formed/2 hours/μg DNA and aromatase inhibition as a percentage of control activity without inhibitor.

human aromatase [2] = target: T2, human aromatase; assay: Dual aromatase and steroid sulfatase activities in JEG-3 cells: aromatase readout; assay type: cell-based; details: footnote c: dual aromatase and sulfatase activity, nd: not detected, read-out: Aromatase activity IC50 (nM) ± S.E.M.
Method: as §1, with “Assays” for “The JEG-3 cell line is intrinsically very rich in human estrone sulfatase and therefore is a useful biological system to evaluate new steroid sulfatase inhibitors in vitro. Assays”, “In parallel, after cell solubilization in a ethylenediamine tetraacetate solution, DNA content was measured by a standard fluorimetric method using the Hoechst 33258 fluorochrome.” left out
(§2) In order to evaluate the inhibitory potency of DASI compounds in parallel on both human aromatase and steroid sulfatase activities, a new in vitro model was set up using JEG-3 cells. The experimental conditions of the steroid sulfatase model previously described was adopted with slight modifications: the presence of the two substrates ^3-HE1S and 1β-^3H-androstenedione into the medium and an incubation period of 2 hours. Results were expressed in pmoles of product formed (^3H-E1+^3H-E2 or ^3H2O)/2 hours/mg DNA (Table 1).

human steroid sulfatase = target: T3, human steroid sulfatase (Homo sapiens, UniProt P08842); assay: Dual aromatase and steroid sulfatase activities in JEG-3 cells: sulfatase readout; assay type: cell-based; details: footnote c: dual aromatase and sulfatase activity, nd: not detected, read-out: Sulfatase activity IC50 (nM) ± S.E.M.
T3 construct: The JEG-3 cell line is intrinsically very rich in human estrone sulfatase; endogenous in cells; host or cells: JEG-3 (human placental choriocarcinoma)
T3 sequence (P08842 22-583): T1 sequence (P08842 22-583)
Method: as §1, §2

[3] = target: human carbonic anhydrase II (Homo sapiens, UniProt P00918); assay: Human carbonic anhydrase II activity (p-nitrophenyl acetate, colorimetric); assay type: biochemical; details: read-out: Human carbonic anhydrase II activity IC50 (nm) ± S.E.M.
Method: Briefly, in this assay, human carbonic anhydrase II catalyses the conversion of p-nitrophenyl acetate into pnitrophenol. The potential inhibitory effect of test compounds was evaluated by colorimetric determination of prnitrophenol produced during the enzymatic reaction. The optical density levels obtained without inhibitor will be referred to as “total activity”. The levels obtained without Inhibitor and without the enzyme will be referred to as “blank” in order to assess any interference with the substrate during the assay (Table 2).

steroid sulfatase = assay: Anti uterotrophic/anti steroid sulfatase activity in vivo; set-up: species or system rat; details: ovariectomized Wistar female rats, E1S 50 μg/kg/day s.c., oral 1 mg/kg/day for 4 days; % of inhibition of the E1S induced stimulation
Method: Wistar female rats were ovariectomized and left to rest for 4 weeks. Prior to treatment, the absence of cyclicity was checked by vaginal smears. Animals were supplemented with estrone sulfate (EIS) at 50 μg/kg/day s.c., alone or combined with oral administration of potential sulfatase inhibitors, at 1 mg/kg/day for 4 days. The uteri were removed, freed of adjacent tissue and wet weighed (Table 3).
Estrone sulfatase activity is measured according to the method described by Purohit et al., with slight modifications. Briefly, uteri were thawed, weighed and homogenized. Aliquots of the supernatant were treated with dextran-coated charcoal and assayed for sulfatase. E1S activity is assessed after 30 min of incubation with 5 nM of ^3H-E1S and 20 μM of unlabelled E1S as substrate. Estrone sulfatase activity is expressed as pmol/h/mg protein and reported as percentage of inhibition vs E1S; for uterus weights, results are expressed as % of inhibition of the E1S induced stimulation

aromatase [4] = assay: Inhibition of estradiol peak, in vivo aromatase inhibition model; set-up: species or system rat; details: female rats, 24 hours after one oral administration
Method: One hundred IOPS Wistar female rats, weighing 180 to 200 g, were accommodated by four in stainless steel mesh cages. […] Vaginal smears were performed for each animal, each morning, in order to establish the different phases of cycle. […] Starting at 4.00 pm, animals received an oral administration of formulations. 24 hours later, samples of serum were collected and estradiol level were determined as previously described (Table 4).

aromatase [5] = details: 3 μg/kg, 24 hours after one single oral administration in female rats; cited from earlier work

SMILES: COc1cc(CN(c2ccc(C#N)cc2)n2ccnc2)ccc1OS(N)(=O)=O [Ex 46, Sulfamic acid 2-methoxy-4-{[N-(4-cyanophenyl)-N-(1H-imidazol-1yl)amino]methyl}phenyl ester]
- IC50 (human estrone sulfatase): 13.8 ± 2.5 nM
- estrogenicity in vitro (in words) (Ishikawa cells): not estrogenic
- melting point: 211 °C
- IC50 (human aromatase [1]): 0.79 ± 0.26 nM

SMILES: N#Cc1ccc(N(CCOc2ccc(OS(N)(=O)=O)cc2)n2ccnc2)cc1 [Ex 51, Sulfamic acid 4-{2-[N-(4-cyanophenyl)-N-(1H-imidazol-1yl)amino]ethoxy}phenyl ester]
- IC50 (human aromatase [2]): 0.34 ± 0.13 nM
- IC50 (human steroid sulfatase): 597 ± 67.4 nM
- IC50 [3]: 6.5 ± 0.9 nM
- melting point: 174 °C

SMILES: NS(=O)(=O)Oc1ccc2c3c(c(=O)oc2c1)CCCCC3 [6,6,7 COUMATE, 6,6,7-COUMATE, reference compound]
- % inhibition (uterus weight) (steroid sulfatase): 81%

SMILES: N#Cc1ccc(N(Cc2ccc3c(c2)C=NS(=O)(=O)O3)n2ccnc2)cc1 [Ex 48, 4-[N-[(2,2-dioxido-1,2,3-benzoxathiazin-6-yl)methyl]-N-(1H-imidazol-1-yl)amino]benzonitrile]
- IC50 (human estrone sulfatase): 2660 ± 257 nM
- melting point: 180 °C
- IC50 (human aromatase [1]): 0.82 ± 0.12 nM

SMILES: N#Cc1ccc(N(Cc2ccc(OS(N)(=O)=O)cc2)n2ccnc2)cc1 [Ex 43, Sulfamic acid-4-{[N-(4-cyanophenyl)-N-(1H-imidazol-1yl)amino]methyl}phenyl ester]
- IC50 (human estrone sulfatase): ~10 nM
- estrogenicity in vitro (in words) (Ishikawa cells): not estrogenic
- melting point: 172 °C
- IC50 (human aromatase [1]): 0.57 ± 0.16 nM

SMILES: NS(=O)(=O)Oc1ccc2c(c1)S(=O)(=O)C=C2CC1CCCCCC1 [A*, sulfamic acid, 3-cycloheptylmethylbenzothiophen-6-yl-1,1-dioxide-ester, reference compound]
- IC50 (human estrone sulfatase): 2.5 ± 0.5 nM
- IC50 (human steroid sulfatase): 3.6 ± 0.8 nM

SMILES: CC(C)(C#N)c1cc(Cn2cncn2)cc(C(C)(C)C#N)c1 [anastrozole, reference compound]
- % inhibition (estradiol peak) (aromatase [4]): 56%
- estradiol levels (in words) (aromatase [5]): significantly inhibits
